Values joined by “and” are separate entries in the source; they are usually repeats but may differ in a detail not shown here. Equal values may be shown once.
Legend:
[1] = Metabolic stability assay, rat liver microsomes; settings: for Remaining in rat liver microsomes (Sup Fig.6b): in % (unit assumed)
Protocol: 7. Metabolic stability assay. The metabolic profile of NHWD-870 was determined using mouse, rat, dog, monkey, and human liver microsomes using the protocols […]
No. Compound ID Exat Mass Stock Conc.
1) 100 mM potassium phosphate buffer, PH7.4; 2) 10mM MgCI2
1) Intermediate solution: Dilute 5 μL of compound or control from stock solution (10 mM) with 45 uL DMSO,then mixed with 450 μL 1:1 Methanol/Water (Conc.: 10 0 […]
2) Working solution: Dilute 50 μL from intermediate solution with 450 μL 100 mM potassium phosphate buffer (Conc.: 10 μM, 4.5%MeOH)
(3) NADPH regenerating system (final Isocitric dehydrogenase conc.= 1 unit/mL at […]
1) β-Nicotinamide adenine dinucleotide phosphate, Vendor: sigma Cat. No. N0505
2) Isocitric acid, Vendor: Sigma Cat. No. I1252
3) Isocitric dehydrogenase, Vendor: sigma Cat. No. I2002
(4) Liver microsome solution preparation (final concentration o f 0.5 mg protein/mL) […]
Cold ACN including 100 ng/mL Tolbutamide and 100 ng/mL Labetalol as internal […]
1) Add 10 μL compound or control working solution/well to all plates (T0, T5, T10, T20, T30, T60, NCF60) except matrix blank.
2) Dispense 680 μL/well microsome solution to 96-well plate as reserv oir according to […]
plate map. Then add 80 μL/well to every plate by Apricot, incubate the mixture of microsome solution and compound at 37℃ for about 10 min.
3) Add 10 μL 100 mM potassium phosphate buffer/well to NCF60, incubate at 37℃, […]
4) After pre-warming, dispense 90 μL/well NADPH regenerating system to 96-well plate as reservoir according to the plate map. Then add 10 μL/well to every plate by Apricot to start reaction.
5) Incubate at 37℃, start timer 2.
6) Add 300 (μL/well) stop solution (cold in 4℃, including 100 ng/mL Tolbutamide and 100 ng/mL Labetalol) to terminate the reaction.
7) The sampling plates are shaked for approx 10 min.
8) Samples are centrifuged at 4000 rpm for 20 min under 4℃.
9) While centrifuging, load 8×new 96-well plate with 300 μL HPLC water, then transfer 100 μL supernatant, mixed for LC/MS/MS.
Use equation of first order kinetics to calculate t1/2 and Clin t(mic): […]
Equation of first order kinetics: […]

MDA-MB231 cells = assay: Clonogenic (colony formation) assay, MDA-MB231; format: cell-based, human; settings: MDA-MB231, 250 nM, 5 days
Protocol: Fig. 2 NHWD-870 inhibited BRD4 phosphorylation and c-MYC expression, and suppressed cell growth. a Representative western blot analysis of p-BRD4 (s484/488), BRD4, c-MYC, and GAPDH after treatment of MDA-MB231, SUM159, A2780 ES-2, and H526 cells with JQ-1 or NHWD-870 at the indicated concentrations for 24 h. GAPDH served as the loading control. Selected from three independent experiments. b MTT assays of H526, A2780, ES-2, and MDA-MB231 cells treated with JQ-1 or NHWD-870 at the indicated concentrations for 5 days. Data are presented as mean ± SEM from three independent experiments. c, d Clonogenic assays of H526, A2780, ES-2 and MDA-MB231 cells treated with 250 nM JQ-1 or NHWD-870 for 5 days. Shown are representative images (c) and quantification of colonies (d). […] Shown are representative images (e) and quantification of relative colony sizes (f). Scale bar, 50 μm. Data are presented as mean ± SEM from five independent experiments. p values were calculated using two-tailed, unpaired t tests in this figure. **p < 0.01; ***p < 0.001. Source data are provided as a Source Data file. […]
5. Colony formation assay. Cells were seeded in 6-well plates at 3,000 cells/well […]
every week. […] Colony numbers were calculated with imageJ version

TAMs = assay: Ki67 FACS of TAMs induced by CSF1; format: cell-based, mouse
Protocol: Flow cytometry analyses were performed using antibodies listed in Supplementary Table 8. For cell surface markers, mouse TAM suspensions were stained with mouse APC-CD45, FITC-CD11b, PE-F4/80 or APC-F4/80, CD68, and PE-CD206 antibodies for 15 min on ice. For Ki67 staining, cells were fixed in 4% paraformaldehyde and stained with FITC-Ki67. Isotype matching antibody served as the negative control. Flow cytometry was performed on a FACSCalibur (BD Biosciences). Data were analyzed with BD CellQuest Pro software version 5.1.
Supplementary Figure 14. NHWD-870 and BRD4 deletion partially inhibite d prolifera tion of TAMs […]
(a) CD45+CD11b+F4/80 + TAMs in the orthotopic B16 melanoma model were harvested from tumors. Shown are representative FACS plots of TAMs. (b,c) Representative FACS plots (b) and quantification (c) of Ki67+ macrophages treated with 50 ng/ml CSF1, and DMSO or 25 or 50 nM NHWD-870. […]
TAMs induced by CSF1. (a-c) CD11b+F4/80+ macrophages in the orthotopic B16F10 melanoma model were harvested from tumor tissues. Shown are representative CD45+, CD11b+, F4/80+ FACS plots (a) and quantification of the percentage of Ki67+ cells after treatment with DMSO or NHWD-870 dependent on CSF1 stimulation (b,c). (d-g) FACS plots and quantification of the percentage of Ki67+ cells after CRISPR/Cas9-mediated BRD4 knockout (d,e) and c-MYC knockout (f,g) in CD11b+F4/80+ macrophages. CSF1 is added at the indicated concentration.
Please also see response to comment # 4 about our 2D assays, in which we used colony number to quantify the number of TAMs.
NHWD-870 treatment and the main differences are colony size.
6. For comparison purposes, it would be a good idea to compare the direct effect of NHWD-870 on in […]
marrow derived macrophage proliferation and gene expression in vitro). […]

Cc1nnn(C)c1-c1cnc2c3c4cnn(C)c4ccc3n([C@H](c3ccccc3)C3CCOCC3)c2c1 [NHWD-870]
Remaining (T=60min) ([1]; rat liver microsomes): 22.3%
Remaining (*NCF=60min) ([1]; rat liver microsomes, no cofactor): 76.0%
CLint scaled at 1 µM ([1]; rat, liver microsomes, pH 7.4): 92 mL/min/kg
half-life at 1 µM ([1]; rat, liver microsomes, pH 7.4): 27.1 min
microsomal CLint at 1 µM ([1]; rat, microsomes, pH 7.4): 51.1 µL/min/mg
Remaining in rat liver microsomes (Sup Fig.6b) ([1]; time 0): 100
Remaining in rat liver microsomes (Sup Fig.6b) ([1]; time 5): 91.753
Remaining in rat liver microsomes (Sup Fig.6b) ([1]; time 10): 75.9
Remaining in rat liver microsomes (Sup Fig.6b) ([1]; time 20): 52.356
Remaining in rat liver microsomes (Sup Fig.6b) ([1]; time 30): 42.131
Remaining in rat liver microsomes (Sup Fig.6b) ([1]; time 60): 22.275
Clone Number (clonogenic assay) (MDA-MB231 cells): 571 and 603 and 635 and 542 and 519
decrease of TAMs proliferation (Ki67 FACS) (TAMs; TAMs induced by CSF1): ~ 50%
fold decrease of CSF1 induced growth of macrophages (TAMs; direct treatment of TAMs in 2D growth assays): < 2 fold

Source: paper PMC7156724, “Potent BRD4 inhibitor suppresses cancer cell-macrophage interaction” (Nature Communications, 2020)
